Data reported in article PMC9813109, “Phase I dose-escalation study of milademetan in patients with relapsed or refractory acute myeloid leukemia” (International Journal of Hematology, 2022).
“Also recorded” adds a separate entry of the source.

Experiments:
patients with R/R AML = tested on: patients with R/R AML
Protocol: This phase I, open-label, and dose-escalation study conducted at eight centers in Japan recruited patients with R/R AML. Four fixed-dose milademetan schedules were planned (Supplementary Fig. 1A). Increases in the milademetan dose were guided by the modified continual reassessment method (mCRM), with a planned maximum dose of 160 mg/day (Supplementary Fig. 1B). Each cohort (90, 120, and 160 mg) consisted of three to six patients. The first cycle was defined as the dose-limiting toxicity (DLT) evaluation period where patients required hospitalization. The number of treatment cycles was not specified, and the study treatment for each patient was continued unless the discontinuation criteria were met.
In this study, we only assessed the patients with schedule A‒milademetan was administered once daily on days 1–14 followed by a 14-day rest in a 28-day cycle.
Relative dose intensity (in percentage) was calculated as a proportion of dose intensity/planned dose intensity (proportion of dose administered/total treatment duration). Safety assessments were completed by documenting the AEs, ECOG PS, laboratory data, body weight, vital signs, and the results of 12 lead ECGs. Serious adverse events (SAEs) were defined as any AEs that caused mortality, were life-threatening, required hospitalization or prolonged existing hospitalization, caused disability or incapacity, or represented other medical conditions. Patients were followed up until the AEs resolved.
Patients were evaluated for DLT during the first 28 days of cycle 1, defined as any nonhematological AEs of grade ≥ 3 unless attributed to the primary disease course, complications, or concomitant medications. Nonhematological toxicities classified as DLTs were grade 4 AST/ALT, grade 3 AST/ALT lasting ≥ 3 days, grade 3 AST/ALT with grade ≥ 2 total bilirubin, or an inability to complete at least 75% of the prescribed milademetan doses in cycle 1 (28 days) due to grade ≥ 2 events. Hematological toxicities classified as DLTs included failure to recover neutrophil and platelet counts to ≥ 500/mm^3 and ≥ 20,000/mm^3, respectively, that delayed the initiation of cycle 2 for > 2 weeks. DLT evaluation findings were used to determine the MTD. AEs that were not classified as DLTs included grade 3 fatigue of < 3 days; grade 3 nausea or vomiting that resolved to grade ≤ 2 within 2 days after antiemetic therapy; grade 3 diarrheas that resolved to grade ≤ 2 within 2 days after antidiarrheal therapy; and alopecia, febrile neutropenia, and transient laboratory abnormalities either without symptoms or requiring continuous treatment. Examples of non-DLT AEs were grade ≥ 3 alkaline phosphatases, uric acid, amylase, lipase, or hyponatremia that resolved within 72 h of onset. The Common Terminology Criteria for Adverse Events (version 5.0) were used for grading, and each AE was coded using the Medical Dictionary for Regulatory Activities (version 21.1). Criteria for drug dose reduction or interruption are described in Supplementary material.
All patients who received at least one milademetan dose were included in the safety analysis set. […] The efficacy analysis set included all patients who received at least one milademetan dose and underwent efficacy evaluation at least once after treatment initiation. […] The biomarker analysis set included all patients who received at least one milademetan dose, whose specimens were collected for biomarker studies, and who had available measurement data. Following the first cycle, doses for subsequent cohorts were guided by an mCRM based on a Bayesian logistic regression model incorporating the escalation with the overdose control principle, clinical evaluation of the toxicological profile, and pharmacokinetics and pharmacodynamics information.

Platelet = tested on: Platelet; design: species or system human; settings: in vivo
Text: Patients were followed up until the AEs resolved.

Which results are given for `CC1(C)CCC2(CC1)N[C@@H](C(=O)N[C@@H]1CC[C@@H](C(N)=O)OC1)[C@H](c1ccnc(Cl)c1F)[C@]21C(=O)Nc2cc(Cl)ccc21` [milademetan]?
Deaths or AEs leading to treatment discontinuation (patients with R/R AML; 14 patients): No deaths or AEs leading to treatment discontinuation occurred; also recorded: No death or AEs that caused treatment discontinuation were noted; Skin infection, All grades (patients with R/R AML; Total (n = 14)): 1 (7.1) n (%); Skin infection, Grade ≥ 3 (patients with R/R AML; Total (n = 14)): 1 (7.1) n (%); Anemia, All grades (patients with R/R AML; human, in vivo): 5 (35.7) n (%); Anemia, Grade ≥ 3 (patients with R/R AML; human, in vivo): 5 (35.7) n (%); Anemia, patients with TEAE regardless of causality (patients with R/R AML; human, in vivo): 35.7%; Decreased appetite, All grades (patients with R/R AML; human, in vivo): 9 (64.3) n (%); Decreased appetite, Grade ≥ 3 (patients with R/R AML; human, in vivo): 1 (7.1) n (%); Decreased appetite, patients with TEAE regardless of causality (patients with R/R AML; human, in vivo): 64.3%; Diarrhea, All grades (patients with R/R AML; human, in vivo): 3 (21.4) n (%); Diarrhea, Grade ≥ 3 (patients with R/R AML; human, in vivo): 1 (7.1) n (%); Dry mouth, All grades (patients with R/R AML; human, in vivo): 3 (21.4) n (%); Dry mouth, Grade ≥ 3 (patients with R/R AML; human, in vivo): 0 (0.0) n (%); Febrile neutropenia, All grades (patients with R/R AML; human, in vivo): 7 (50.0) n (%); Febrile neutropenia, Grade ≥ 3 (patients with R/R AML; human, in vivo): 7 (50.0) n (%); Febrile neutropenia, patients with TEAE regardless of causality (patients with R/R AML; human, in vivo): 50%; Hypokalemia, All grades (patients with R/R AML; human, in vivo): 4 (28.6) n (%); Hypokalemia, Grade ≥ 3 (patients with R/R AML; human, in vivo): 1 (7.1) n (%); Leukopenia, All grades (patients with R/R AML; human, in vivo): 1 (7.1) n (%); Leukopenia, Grade ≥ 3 (patients with R/R AML; human, in vivo): 1 (7.1) n (%); Malaise, All grades (patients with R/R AML; human, in vivo): 3 (21.4) n (%); Malaise, Grade ≥ 3 (patients with R/R AML; human, in vivo): 0 (0.0) n (%); Nausea, All grades (patients with R/R AML; human, in vivo): 6 (42.9) n (%); Nausea, Grade ≥ 3 (patients with R/R AML; human, in vivo): 0 (0.0) n (%); Nausea, patients with TEAE regardless of causality (patients with R/R AML; human, in vivo): 42.9%; Neutropenia, All grades (patients with R/R AML; human, in vivo): 2 (14.3) n (%); Neutropenia, Grade ≥ 3 (patients with R/R AML; human, in vivo): 2 (14.3) n (%); Neutrophil count decreased, All grades (patients with R/R AML; human, in vivo): 1 (7.1) n (%); Neutrophil count decreased, Grade ≥ 3 (patients with R/R AML; human, in vivo): 1 (7.1) n (%); Number of patients with SAEs (patients with R/R AML; human, in vivo): 4 patients; Patients with TEAEs leading to study treatment interruption (patients with R/R AML; human, in vivo): 21.4%; Patients with a TEAE that required dose reduction (acute kidney injury) (patients with R/R AML; human, in vivo): 7.1%; Patients with grade ≥ 3 TEAEs (patients with R/R AML; human, in vivo): 71.4%; Pharyngitis, All grades (patients with R/R AML; human, in vivo): 1 (7.1) n (%); Pharyngitis, Grade ≥ 3 (patients with R/R AML; human, in vivo): 1 (7.1) n (%); Platelet count decreased, All grades (patients with R/R AML; human, in vivo): 3 (21.4) n (%); Platelet count decreased, Grade ≥ 3 (patients with R/R AML; human, in vivo): 3 (21.4) n (%); Pneumonia, All grades (patients with R/R AML; human, in vivo): 4 (28.6) n (%); Pneumonia, Grade ≥ 3 (patients with R/R AML; human, in vivo): 3 (21.4) n (%); Serious TEAE (patients with R/R AML; human, in vivo): 4 (28.6) n (%); Stomatitis, All grades (patients with R/R AML; human, in vivo): 3 (21.4) n (%); Stomatitis, Grade ≥ 3 (patients with R/R AML; human, in vivo): 0 (0.0) n (%); TEAE (patients with R/R AML; human, in vivo): 13 (92.9) n (%); TEAE by CTCAE grade ≤ 2 (patients with R/R AML; human, in vivo): 3 (21.4) n (%); TEAE by CTCAE grade ≥ 3 (patients with R/R AML; human, in vivo): 10 (71.4) n (%); TEAE leading to treatment interruption: decreased appetite (patients with R/R AML; human, in vivo): 1 n; TEAE leading to treatment interruption: decreased neutrophil count (patients with R/R AML; human, in vivo): 1 n; TEAE leading to treatment interruption: decreased platelet count (patients with R/R AML; human, in vivo): 1 n; TEAE leading to treatment interruption: diarrhea (patients with R/R AML; human, in vivo): 1 n; TEAE leading to treatment interruption: dysgeusia (patients with R/R AML; human, in vivo): 1 n; TEAE leading to treatment interruption: febrile neutropenia (patients with R/R AML; human, in vivo): 2 n; Thrombocytopenia, All grades (patients with R/R AML; human, in vivo): 4 (28.6) n (%); Thrombocytopenia, Grade ≥ 3 (patients with R/R AML; human, in vivo): 4 (28.6) n (%); Tolerability (patients with R/R AML; human, in vivo): well tolerated up to 160 mg; Vomiting, All grades (patients with R/R AML; human, in vivo): 4 (28.6) n (%); Vomiting, Grade ≥ 3 (patients with R/R AML; human, in vivo): 0 (0.0) n (%); White blood cell count decreased, All grades (patients with R/R AML; human, in vivo): 1 (7.1) n (%); White blood cell count decreased, Grade ≥ 3 (patients with R/R AML; human, in vivo): 1 (7.1) n (%); Recommended dose (patients with R/R AML; human, in vivo, 28 days): 160 mg; Dose dependence of frequency of TEAEs that were grade ≥ 3, serious, or led to dose reduction/treatment interruption (patients with R/R AML; in vivo): No dose-dependent increase was observed; Grade 4 TEAE: decreased neutrophil count (patients with R/R AML; in vivo): one; Grade 4 TEAE: decreased platelet count (patients with R/R AML; in vivo): three; Grade 4 TEAE: neutropenia (patients with R/R AML; in vivo): two; Grade 4 TEAE: thrombocytopenia (patients with R/R AML; in vivo): two; Number of reported SAEs (serious TEAEs) (patients with R/R AML; in vivo): Five; Other laboratory parameters (hematology, blood chemistry, urinalysis), vital signs, ECG parameters (patients with R/R AML; in vivo): No clinically relevant changes from baseline or consistent trends were observed; SAE: febrile neutropenia (patients with R/R AML; in vivo): two; SAE: pneumonia (patients with R/R AML; in vivo): three; Maximum tolerated dose (MTD) (patients with R/R AML; up to 160 mg, QD 14/28 schedule): not reached; Mean platelet count vs baseline (Platelet): decreased from the baseline in all cohorts
